Measured values: patent US20190330224A1, “ACC INHIBITORS AND USES THEREOF” (Gilead Apollo, LLC, priority 2015, published 2019)
In brackets after ≈: the same amount, converted by molar mass.

Experiments:
[1] = tested on: C. parapsilosis ATCC 22019; experiment: Anti-Fungal Activity Assay (broth microtiter MIC), C. parapsilosis; type: cell-based, Candida parapsilosis; settings: Lodderomyces parapsilosis, ATCC22019, 48 h, 3 replicates; MIC recorded at 48 h; read-out: MIC C. parapsilosis ATCC 22019
In short: (§1)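 Candida strains were grown from frozen stock on Sabouraud dextrose agar overnight at 35° C, then suspended directly in RPMI 1640+MOPS and quantified against standard curves. Broth microdilution MIC plates followed CLSI M27-A3; MICs were read visually against growth control at 48 h, with a 24 h read added for soraphen.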

Fungal ACC2 = Fungal ACC2 (UniProt Q00955); settings: read-out: Fungal ACC2 (IC50, in vitro ACC2 inhibition)
C. krusei ATCC 6258 = experiment: Anti-Fungal Activity Assay (broth microtiter MIC), C. krusei; type: cell-based, Candida krusei; settings: Pichia kudriavzevii, ATCC6258, 48 h, 3 replicates; MIC recorded at 48 h; read-out: MIC C. krusei ATCC 6258
In short: as §1

C. albicans ATCC 90028 = experiment: Anti-Fungal Activity Assay (broth microtiter MIC), C. albicans; type: cell-based, Candida albicans; settings: Candida albicans, ATCC90028, 48 h, 3 replicates; MIC recorded at 48 h; read-out: MIC C. albicans ATCC 90028
In short: as §1

Human ACC2 = Human ACC2 (Homo sapiens, UniProt O00763); experiment: In vitro ACC2 inhibition assay (ADP-Glo), human ACC2; type: biochemical; settings: 5 nM ACC2, 20 μM ATP, 20 μM acetyl-CoA
Human ACC2, sequence (O00763 whole entry): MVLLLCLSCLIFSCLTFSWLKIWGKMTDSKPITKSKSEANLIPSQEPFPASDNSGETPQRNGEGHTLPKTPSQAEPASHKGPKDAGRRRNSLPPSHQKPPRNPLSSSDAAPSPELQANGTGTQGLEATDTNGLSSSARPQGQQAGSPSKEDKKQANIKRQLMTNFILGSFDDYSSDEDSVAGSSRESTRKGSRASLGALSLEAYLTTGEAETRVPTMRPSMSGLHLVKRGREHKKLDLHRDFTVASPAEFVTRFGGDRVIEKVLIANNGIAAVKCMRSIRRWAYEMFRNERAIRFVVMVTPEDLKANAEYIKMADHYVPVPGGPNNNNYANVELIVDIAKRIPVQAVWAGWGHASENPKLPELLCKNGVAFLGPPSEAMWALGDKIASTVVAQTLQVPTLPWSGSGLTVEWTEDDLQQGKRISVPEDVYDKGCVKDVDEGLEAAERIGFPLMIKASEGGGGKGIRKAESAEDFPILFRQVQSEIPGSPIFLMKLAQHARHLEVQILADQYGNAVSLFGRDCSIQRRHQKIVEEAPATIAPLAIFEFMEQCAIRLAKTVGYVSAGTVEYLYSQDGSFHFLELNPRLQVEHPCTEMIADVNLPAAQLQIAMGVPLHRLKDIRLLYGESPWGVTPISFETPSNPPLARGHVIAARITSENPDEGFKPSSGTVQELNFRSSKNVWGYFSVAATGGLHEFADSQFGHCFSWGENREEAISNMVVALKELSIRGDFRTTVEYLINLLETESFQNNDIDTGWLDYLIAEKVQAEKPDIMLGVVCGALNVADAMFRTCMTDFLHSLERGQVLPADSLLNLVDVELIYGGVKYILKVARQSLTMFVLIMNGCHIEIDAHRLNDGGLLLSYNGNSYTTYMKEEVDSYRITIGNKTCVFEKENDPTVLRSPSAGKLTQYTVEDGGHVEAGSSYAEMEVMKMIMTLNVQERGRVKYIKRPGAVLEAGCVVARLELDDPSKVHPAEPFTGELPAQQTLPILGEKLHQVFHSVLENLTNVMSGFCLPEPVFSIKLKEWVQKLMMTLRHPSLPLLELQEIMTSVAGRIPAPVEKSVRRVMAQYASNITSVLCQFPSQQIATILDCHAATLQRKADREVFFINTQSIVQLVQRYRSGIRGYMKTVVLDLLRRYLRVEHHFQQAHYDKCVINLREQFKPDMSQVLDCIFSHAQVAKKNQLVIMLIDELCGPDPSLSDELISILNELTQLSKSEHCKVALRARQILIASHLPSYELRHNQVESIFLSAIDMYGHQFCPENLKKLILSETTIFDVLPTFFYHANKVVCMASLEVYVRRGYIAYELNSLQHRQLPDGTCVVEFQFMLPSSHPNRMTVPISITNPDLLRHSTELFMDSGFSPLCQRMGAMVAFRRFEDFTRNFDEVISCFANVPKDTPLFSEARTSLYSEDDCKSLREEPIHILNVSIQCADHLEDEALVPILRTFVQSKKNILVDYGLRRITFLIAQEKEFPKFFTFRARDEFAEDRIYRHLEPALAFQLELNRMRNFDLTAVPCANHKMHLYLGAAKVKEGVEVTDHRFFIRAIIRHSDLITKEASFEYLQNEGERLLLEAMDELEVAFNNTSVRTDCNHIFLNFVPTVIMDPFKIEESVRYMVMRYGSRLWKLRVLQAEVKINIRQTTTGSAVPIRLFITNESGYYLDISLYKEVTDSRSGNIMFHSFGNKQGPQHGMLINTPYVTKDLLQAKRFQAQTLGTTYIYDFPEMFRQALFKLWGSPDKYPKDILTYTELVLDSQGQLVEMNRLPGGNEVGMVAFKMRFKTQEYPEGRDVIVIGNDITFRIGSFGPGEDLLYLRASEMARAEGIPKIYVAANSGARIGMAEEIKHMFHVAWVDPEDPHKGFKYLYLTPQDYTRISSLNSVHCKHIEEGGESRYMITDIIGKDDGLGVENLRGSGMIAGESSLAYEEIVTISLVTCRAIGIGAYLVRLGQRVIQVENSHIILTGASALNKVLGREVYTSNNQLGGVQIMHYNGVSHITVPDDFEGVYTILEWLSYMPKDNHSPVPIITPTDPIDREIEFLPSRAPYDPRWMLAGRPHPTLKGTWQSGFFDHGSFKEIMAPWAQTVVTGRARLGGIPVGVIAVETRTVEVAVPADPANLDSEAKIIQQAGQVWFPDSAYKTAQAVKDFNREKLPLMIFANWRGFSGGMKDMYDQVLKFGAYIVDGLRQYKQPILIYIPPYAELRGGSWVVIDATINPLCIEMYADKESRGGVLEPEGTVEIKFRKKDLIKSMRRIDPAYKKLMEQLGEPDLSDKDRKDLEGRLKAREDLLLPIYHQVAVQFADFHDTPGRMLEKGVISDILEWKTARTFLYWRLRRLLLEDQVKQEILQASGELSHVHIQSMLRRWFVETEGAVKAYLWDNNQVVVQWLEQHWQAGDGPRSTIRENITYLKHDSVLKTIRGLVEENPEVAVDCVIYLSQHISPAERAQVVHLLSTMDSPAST

Fungal ACC2, sequence (Q00955 whole entry): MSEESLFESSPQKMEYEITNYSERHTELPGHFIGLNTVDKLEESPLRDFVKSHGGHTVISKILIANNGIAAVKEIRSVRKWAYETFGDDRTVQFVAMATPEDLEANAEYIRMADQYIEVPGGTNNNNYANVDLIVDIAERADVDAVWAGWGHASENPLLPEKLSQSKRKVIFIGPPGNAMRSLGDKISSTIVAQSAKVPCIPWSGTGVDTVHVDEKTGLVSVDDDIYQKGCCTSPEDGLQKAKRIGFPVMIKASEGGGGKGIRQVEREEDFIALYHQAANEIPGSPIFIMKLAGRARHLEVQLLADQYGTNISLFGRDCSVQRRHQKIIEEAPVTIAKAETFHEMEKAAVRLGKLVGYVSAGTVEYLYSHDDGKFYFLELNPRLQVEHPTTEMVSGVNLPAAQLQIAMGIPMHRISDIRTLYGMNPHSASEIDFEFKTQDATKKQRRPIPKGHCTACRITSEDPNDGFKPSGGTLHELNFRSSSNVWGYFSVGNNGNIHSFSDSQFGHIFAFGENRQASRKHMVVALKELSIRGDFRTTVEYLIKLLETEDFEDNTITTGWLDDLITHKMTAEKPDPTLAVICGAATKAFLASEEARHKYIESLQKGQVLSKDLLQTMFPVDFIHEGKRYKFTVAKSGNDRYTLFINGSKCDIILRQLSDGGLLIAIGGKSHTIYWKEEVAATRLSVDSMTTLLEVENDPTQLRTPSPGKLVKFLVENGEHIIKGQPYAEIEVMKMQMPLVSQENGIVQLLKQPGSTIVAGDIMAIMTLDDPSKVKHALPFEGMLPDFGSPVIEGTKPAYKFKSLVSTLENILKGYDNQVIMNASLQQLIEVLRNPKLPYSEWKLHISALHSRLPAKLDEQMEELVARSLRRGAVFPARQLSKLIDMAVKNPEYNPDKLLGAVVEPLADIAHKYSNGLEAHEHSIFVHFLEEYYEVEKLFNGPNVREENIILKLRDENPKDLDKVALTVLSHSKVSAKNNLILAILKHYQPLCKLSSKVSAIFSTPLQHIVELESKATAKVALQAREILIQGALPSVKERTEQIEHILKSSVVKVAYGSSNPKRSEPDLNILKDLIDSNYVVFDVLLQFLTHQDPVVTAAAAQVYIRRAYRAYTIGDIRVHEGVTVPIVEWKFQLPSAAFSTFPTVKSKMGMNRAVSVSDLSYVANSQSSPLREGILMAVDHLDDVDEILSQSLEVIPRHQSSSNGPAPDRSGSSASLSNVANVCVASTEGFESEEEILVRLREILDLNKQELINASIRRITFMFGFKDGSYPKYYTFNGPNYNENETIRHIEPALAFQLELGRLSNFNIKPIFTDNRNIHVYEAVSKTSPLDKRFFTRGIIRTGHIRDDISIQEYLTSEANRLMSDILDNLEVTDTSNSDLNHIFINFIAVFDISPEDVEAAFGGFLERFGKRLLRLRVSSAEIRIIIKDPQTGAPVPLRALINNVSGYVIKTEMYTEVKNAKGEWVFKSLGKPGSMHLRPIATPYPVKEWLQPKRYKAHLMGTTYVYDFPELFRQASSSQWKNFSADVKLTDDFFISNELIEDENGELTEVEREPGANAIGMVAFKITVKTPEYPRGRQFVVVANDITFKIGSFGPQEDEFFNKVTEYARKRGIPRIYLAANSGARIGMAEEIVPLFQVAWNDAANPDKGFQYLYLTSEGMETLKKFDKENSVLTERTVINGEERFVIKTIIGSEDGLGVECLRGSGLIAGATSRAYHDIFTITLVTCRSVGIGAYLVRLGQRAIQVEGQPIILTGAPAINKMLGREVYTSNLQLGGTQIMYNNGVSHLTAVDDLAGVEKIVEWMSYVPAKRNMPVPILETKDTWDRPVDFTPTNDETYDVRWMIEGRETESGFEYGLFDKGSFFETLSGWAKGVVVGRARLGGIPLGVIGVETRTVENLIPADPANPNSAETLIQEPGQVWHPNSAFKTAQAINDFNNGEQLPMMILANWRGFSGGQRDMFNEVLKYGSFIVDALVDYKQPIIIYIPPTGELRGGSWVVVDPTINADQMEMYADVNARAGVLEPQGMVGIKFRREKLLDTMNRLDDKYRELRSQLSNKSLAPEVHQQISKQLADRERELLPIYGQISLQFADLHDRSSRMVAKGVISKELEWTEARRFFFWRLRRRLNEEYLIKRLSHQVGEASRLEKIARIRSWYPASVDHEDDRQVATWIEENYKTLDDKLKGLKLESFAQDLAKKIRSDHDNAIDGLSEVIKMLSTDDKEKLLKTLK

| SMILES | MIC [1] [mg/L] | IC50 (Fungal ACC2) [µM] | MIC (C. krusei ATCC 6258) [mg/L] | MIC (C. albicans ATCC 90028) [mg/L] | IC50 (Human ACC2) [µM] |
| --- | --- | --- | --- | --- | --- |
| COc1ccccc1[C@H](Cn1c(=O)n([C@@H]2CCCNC2=O)c(=O)c2c(C)c(-c3ncco3)sc21)OCCO [Compound I-61, 1-((R)-2-(2-hydroxyethoxy)-2-(2-methoxyphenyl)ethyl)-5-methyl-6-(oxazol-2-yl)-3-((R)-2-oxopiperidin-3-yl)thieno[2,3-d]pyrimidine-2,4(1H,3H)-dione] | 2.1 to 4 (≈ 3.88 to 7.4 µM) | 0.0007 to 0.002 | 2.1 to 4 (≈ 3.88 to 7.4 µM) | 2.1 to 4 (≈ 3.88 to 7.4 µM) | 0.01 to 0.1 |
| COc1ccccc1[C@H](Cn1c(=O)n([C@H]2CCCN(C)C2=O)c(=O)c2c(C)c(-c3ncco3)sc21)OCCO [Compound I-66, 1-((R)-2-(2-hydroxyethoxy)-2-(2-methoxyphenyl)ethyl)-5-methyl-3-((S)-1-methyl-2-oxopiperidin-3-yl)-6-(oxazol-2-yl)thieno[2,3-d]pyrimidine-2,4(1H,3H)-dione] | 2.1 to 4 (≈ 3.79 to 7.21 µM) | 0.002 to 0.01 | 2.1 to 4 (≈ 3.79 to 7.21 µM) | 2.1 to 4 (≈ 3.79 to 7.21 µM) | 0.01 to 0.1 |
| COc1ccccc1[C@H](Cn1c(=O)n([C@@H]2CCCN(C)C2=O)c(=O)c2c(C)c(-c3ncco3)sc21)OCCO [Compound I-67, 1-((R)-2-(2-hydroxyethoxy)-2-(2-methoxyphenyl)ethyl)-5-methyl-3-((R)-1-methyl-2-oxopiperidin-3-yl)-6-(oxazol-2-yl)thieno[2,3-d]pyrimidine-2,4(1H,3H)-dione] | 2.1 to 4 (≈ 3.79 to 7.21 µM) | 0.002 to 0.01 | 2.1 to 4 (≈ 3.79 to 7.21 µM) | 2.1 to 4 (≈ 3.79 to 7.21 µM) | 0.01 to 0.1 |
| COc1ccc(F)cc1[C@H](Cn1c(=O)n([C@H]2CCNC2=O)c(=O)c2c(C)c(-c3ncco3)sc21)OCCO [Compound I-68, 1-((R)-2-(5-fluoro-2-methoxyphenyl)-2-(2-hydroxy-ethoxy)ethyl)-5-methyl-6-(oxazol-2-yl)-3-((S)-2-oxopyrrolidin-3-yl)thieno[2,3-d]pyrimidine-2,4(1H,3H)-dione] | 2.1 to 4 (≈ 3.86 to 7.35 µM) | 0.002 to 0.01 | 2.1 to 4 (≈ 3.86 to 7.35 µM) | 2.1 to 4 (≈ 3.86 to 7.35 µM) | 0.01 to 0.1 |
| COc1ccc(F)cc1[C@H](Cn1c(=O)n([C@@H]2CCNC2=O)c(=O)c2c(C)c(-c3ncco3)sc21)OCCO [Compound I-69, 1-((R)-2-(5-fluoro-2-methoxyphenyl)-2-(2-hydroxy-ethoxy)ethyl)-5-methyl-6-(oxazol-2-yl)-3-((R)-2-oxopyrrolidin-3-yl)thieno[2,3-d]pyrimidine-2,4(1H,3H)-dione] | 2.1 to 4 (≈ 3.86 to 7.35 µM) | 0.002 to 0.01 | 2.1 to 4 (≈ 3.86 to 7.35 µM) | 2.1 to 4 (≈ 3.86 to 7.35 µM) | 0.01 to 0.1 |
| COCCO[C@@H](Cn1c(=O)n([C@@H]2CCN(C(=O)C(C)C)C2)c(=O)c2c(C)c(-n3nccn3)sc21)c1cc(F)ccc1OC [Compound I-86, 1-((R)-2-(5-fluoro-2-methoxyphenyl)-2-(2-methoxy-ethoxy)ethyl)-3-((R)-1-isobutyrylpyrrolidine-3-yl)-5-methyl-6-(2H-1,2,3-triazol-2-yl)thieno[2,3-d]pyrimidine-2,4(1H,3H)-dione] | 2.1 to 4 (≈ 3.42 to 6.51 µM) | 0.0007 to 0.002 | 2.1 to 4 (≈ 3.42 to 6.51 µM) | 2.1 to 4 (≈ 3.42 to 6.51 µM) | 0.01 to 0.1 |
| COc1ccc(F)cc1[C@H](Cn1c(=O)n([C@@H]2CCN(C(=O)C(C)C)C2)c(=O)c2c(C)c(-n3nccn3)sc21)OCCO [Compound I-87, 1-((R)-2-(5-fluoro-2-methoxyphenyl)-2-(2-hydroxy-ethoxy)ethyl)-3-((R)-1-isobutyrylpyrrolidine-3-yl)-5-methyl-6-(2H-1,2,3-triazol-2-yl)thieno[2,3-d]pyrimidine-2,4(1H,3H)-dione] | 2.1 to 4 (≈ 3.5 to 6.66 µM) | 0.0007 to 0.002 | 2.1 to 4 (≈ 3.5 to 6.66 µM) | 2.1 to 4 (≈ 3.5 to 6.66 µM) | 0.01 to 0.1 |
| COCCO[C@@H](Cn1c(=O)n([C@H]2CNC(=O)C2)c(=O)c2c(C)c(-n3nccn3)sc21)c1cc(F)ccc1OC [Compound I-88, 1-((R)-2-(5-fluoro-2-methoxyphenyl)-2-(2-methoxy-ethoxy)ethyl)-5-methyl-3-((R)-5-oxopyrrolidin-3-yl)-6-(2H-1,2,3-triazol-2-yl)thieno[2,3-d]pyrimidine-2,4(1H,3H)-dione] | 2.1 to 4 (≈ 3.76 to 7.16 µM) | 0.0007 to 0.002 | 2.1 to 4 (≈ 3.76 to 7.16 µM) | 2.1 to 4 (≈ 3.76 to 7.16 µM) | 0.01 to 0.1 |
| COc1ccc(F)cc1[C@H](Cn1c(=O)n([C@H]2CNC(=O)C2)c(=O)c2c(C)c(-n3nccn3)sc21)OCCO [Compound I-89, 1-((R)-2-(5-fluoro-2-methoxyphenyl)-2-(2-hydroxy-ethoxy)ethyl)-5-methyl-3-((R)-5-oxopyrrolidin-3-yl)-6-(2H-1,2,3-triazol-2-yl)thieno[2,3-d]pyrimidine-2,4(1H, 3H)-dione] | 2.1 to 4 (≈ 3.86 to 7.35 µM) | 0.0007 to 0.002 | 2.1 to 4 (≈ 3.86 to 7.35 µM) | 2.1 to 4 (≈ 3.86 to 7.35 µM) | 0.002 to 0.01 |
